Data published in US8969335B2, “Benzonitrile derivatives as kinase inhibitors” (MERCK PATENT GmbH, priority 2011, dated 2015).
Like-named read-outs stand apart in the source and are kept apart here.

Tests used:
[1] = system: TBK1 + IKKε (phospho-IRF3 @ Ser 386, MDA-MB-468 cells); assay: TBK1 + IKKε cell assay: dose response inhibition of phospho-IRF3 @ Ser 386 in MDA-MB-468 cells; assay type: cell-based; settings: Homo sapiens
[2] = molecular target: TANK binding kinase (TBK1) (Homo sapiens (Human), UniProt Q9UHD2); assay: TBK1 enzyme assay (384-well flashplate kinase assay); assay type: biochemical; settings: 0.6 nM TBK1, 10 μM ATP, 30° C., 120 min
Sequence of TANK binding kinase (TBK1) (Q9UHD2 whole entry): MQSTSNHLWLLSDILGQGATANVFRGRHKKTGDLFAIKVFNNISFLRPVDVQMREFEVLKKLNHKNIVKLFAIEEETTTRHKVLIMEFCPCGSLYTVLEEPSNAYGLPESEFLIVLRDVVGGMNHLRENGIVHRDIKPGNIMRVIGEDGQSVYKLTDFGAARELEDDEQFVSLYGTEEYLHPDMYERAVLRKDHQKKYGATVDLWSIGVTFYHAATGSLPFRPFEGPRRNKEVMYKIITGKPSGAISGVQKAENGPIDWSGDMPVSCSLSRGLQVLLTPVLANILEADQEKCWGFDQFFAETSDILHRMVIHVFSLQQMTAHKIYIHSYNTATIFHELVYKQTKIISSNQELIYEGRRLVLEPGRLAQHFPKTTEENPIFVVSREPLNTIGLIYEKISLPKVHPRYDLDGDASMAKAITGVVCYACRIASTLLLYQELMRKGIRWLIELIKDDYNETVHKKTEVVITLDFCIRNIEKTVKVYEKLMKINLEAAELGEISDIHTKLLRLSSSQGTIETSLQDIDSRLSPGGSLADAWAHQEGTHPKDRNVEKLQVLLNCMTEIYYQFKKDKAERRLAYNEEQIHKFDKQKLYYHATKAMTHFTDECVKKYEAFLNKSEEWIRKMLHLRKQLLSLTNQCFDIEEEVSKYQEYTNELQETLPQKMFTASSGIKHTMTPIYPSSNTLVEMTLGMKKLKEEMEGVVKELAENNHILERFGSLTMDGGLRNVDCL

IKKε = IKKε (Homo sapiens (Human), UniProt Q14164); assay: IKKε kinase assay (384-well flashplate assay); assay type: biochemical; settings: 1 nM IKKε, 10 μM ATP, 30° C., 2 hours; read-out: IKKε enzyme assay IC50
Sequence of IKKε (Q14164 whole entry): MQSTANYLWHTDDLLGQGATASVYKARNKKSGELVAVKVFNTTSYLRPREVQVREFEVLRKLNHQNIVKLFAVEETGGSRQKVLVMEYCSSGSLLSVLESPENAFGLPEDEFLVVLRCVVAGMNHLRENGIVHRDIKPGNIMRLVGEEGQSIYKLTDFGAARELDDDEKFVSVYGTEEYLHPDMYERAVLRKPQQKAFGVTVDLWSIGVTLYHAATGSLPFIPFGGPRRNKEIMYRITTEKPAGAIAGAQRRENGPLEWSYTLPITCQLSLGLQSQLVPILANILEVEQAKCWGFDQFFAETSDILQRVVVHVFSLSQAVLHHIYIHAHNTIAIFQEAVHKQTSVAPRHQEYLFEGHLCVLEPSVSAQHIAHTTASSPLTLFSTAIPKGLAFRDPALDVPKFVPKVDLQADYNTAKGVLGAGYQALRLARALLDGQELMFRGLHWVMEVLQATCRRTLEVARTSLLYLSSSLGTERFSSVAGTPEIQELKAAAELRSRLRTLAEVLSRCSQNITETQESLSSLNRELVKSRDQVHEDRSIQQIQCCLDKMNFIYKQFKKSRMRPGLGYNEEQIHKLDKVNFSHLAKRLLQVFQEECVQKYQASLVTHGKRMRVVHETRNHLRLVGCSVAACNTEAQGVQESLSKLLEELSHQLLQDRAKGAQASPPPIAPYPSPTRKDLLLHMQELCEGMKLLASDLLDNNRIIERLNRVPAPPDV
Procedure: Test for the Inhibition of IKKε
IKKε—Kinase Assay (IKKepsilon)
The kinase assay is performed as 384-well flashplate assay (for example for Topcount measurement).
1 nM IKKε, 800 nM biotinylated IκBα(19-42) peptide (Biotin-C6-C6-[…]) and 10 μM ATP (spiked with 0.3 μCi of ^33P-ATP/well) are incubated at 30° C. for 2 hours in a total volume of 50 μl (10 mM MOPS, 10 mM Mg acetate, 0.1 mM EGTA, 1 mM dithiothreitol, 0.02% of Brij35, 0.1% of BSA, 0.1% of BioStab, pH 7.5) with or without test compound. The reaction is stopped using 25 μl of 200 mM EDTA. After 30 min at room temperature, the liquid is removed, and each well is washed three times with 100 μl of 0.9% sodium chloride solution. Non-specific reaction is determined in the presence of 3 μM MSC2119074 (BX-795). The radioactivity is measured using a Topcount (PerkinElmer). The results (for example IC50 values) are calculated using program tools provided by the IT Department (for example AssayExplorer, Symyx).

[3] = poly(I:C) stimulation, nuclear phospho-IRF3, read-out: TBK1 + IKKε cell assay IC50

Compound | IC50 [1, 3] | IC50 [2] | IC50 (IKKε) | IC50 ([1]; reference inhibitor range, read-out: IC50 of reference inhibitor in phospho-IRF3 cell assay)
N#Cc1cc(-c2ccnc(Nc3cnn(CC(F)F)c3)c2)ccc1OC1CCOCC1 [Compound A20, 5-{2-[1-(2,2-Difluoroethyl)-1H-pyrazol-4-ylamino]pyridin-4-yl}-2-(tetrahydropyran-4-yloxy)benzonitrile] | 4800 nM | 55 nM | 51 nM | 
N#Cc1cc(-c2ccnc(Nc3ccc(N4CCOCC4)nn3)c2)ccc1OC1CCOCC1 [Compound A90, 5-[2-(6-morpholin-4-ylpyridazin-3-ylamino)pyridin-4-yl]-2-(tetrahydropyran-4-yloxy)benzonitrile] | 1300 nM | 88 nM | 98 nM | 
Cn1ccc(Nc2nccc(-c3ccc(OC4CCOCC4)c(C#N)c3)n2)n1 [Compound A33, 5-[2-(1-Methyl-1H-pyrazol-3-ylamino)pyrimidin-4-yl]-2-(tetrahydropyran-4-yloxy)benzonitrile] | 5000 nM | 130 nM | 58 nM | 
COCCCn1cc(Nc2cc(-c3ccc(OC4CCOCC4)c(C#N)c3)ccn2)cn1 [Compound A23, 5-{2-[1-(3-Methoxypropyl)-1H-pyrazol-4-ylamino]pyridin-4-yl}-2-(tetrahydropyran-4-yloxy)benzonitrile] | 7800 nM | 120 nM | 160 nM | 
N#Cc1cc(-c2ccnc(Nc3ccc(-c4cccnc4)cn3)c2)ccc1OC1CCOCC1 [Compound A3, 5-[2-([3,3′]Bipyridinyl-6-ylamino)pyridin-4-yl]-2-(tetrahydropyran-4-yloxy)benzonitrile] | 3300 nM | 260 nM | 370 nM | 
N#Cc1cc(-c2ccnc(Nc3ccn(C4CCNCC4)n3)c2)ccc1OCC1CC1 [Compound A107, 2-cyclopropylmethoxy-5-[2-(1-piperidin-4-yl-1H-pyrazol-3-ylamino)pyridin-4-yl]benzonitrile] | 11000 nM | 50 nM | 30 nM | 
Cc1cc(Nc2nccc(-c3ccc(OC4CCOCC4)c(C#N)c3)n2)no1 [Compound A80, 5-[2-(5-methylisoxazol-3-ylamino)pyrimidin-4-yl]-2-(tetrahydropyran-4-yloxy)benzonitrile] | 13000 nM | 230 nM | 210 nM | 
N#Cc1cc(-c2ccnc(Nc3cnn(CC4CC4C#N)c3)c2)ccc1OC1CCOCC1 (stereo not drawn) [Compound A24, 5-{2-[1-(2-Cyanocyclopropylmethyl)-1H-pyrazol-4-ylamino]pyridin-4-yl}-2-(tetrahydropyran-4-yloxy)benzonitrile] | 4800 nM | 110 nM | 89 nM | 
N#Cc1cc(-c2ccnc(Nc3ccc(N4CCOCC4)cn3)c2)ccc1OCC1CCC1 [Compound A113, 2-cyclobutylmethoxy-5-[2-(5-morpholin-4-ylpyridin-2-ylamino)pyridin-4-yl]benzonitrile] | 2900 nM | 54 nM | 120 nM | 
O=C(NCCCNc1nc(Nc2cccc(NC(=O)N3CCCC3)c2)ncc1I)c1cccs1 [BX-795, reference compound] |  |  |  | 200 to 800 nM
N#Cc1cc(-c2ccnc(Nc3ccc(CO)cn3)c2)ccc1OCC1CCC1 [Compound A111, 2-cyclobutylmethoxy-5-[2-(5-hydroxymethylpyridin-2-ylamino)pyridin-4-yl]benzonitrile] |  | 89 nM | 200 nM | 

Other lines, results leading:

IC50 [1, 3] | IC50 [2] | IC50 (IKKε) | IC50 ([1]; reference inhibitor range, read-out: IC50 of reference inhibitor in phospho-IRF3 cell assay) | Compound
2300 nM | 32 nM | 8 nM |  | N#Cc1cc(-c2ccnc(Nc3cccc(C4CCNCC4)n3)c2)ccc1OC1CCOCC1 [Compound A91, 5-[2-(1′,2′,3′,4′,5′,6′-hexahydro-[2,4′]bipyridinyl-6-ylamino)pyridin-4-yl]-2-(tetrahydropyran-4-yloxy)benzonitrile]
1300 nM | 30 nM | 25 nM |  | N#Cc1cc(-c2ccnc(Nc3cc(C4CC4)n[nH]3)c2)ccc1OC1CCOCC1 [Compound A12, 5-[2-(5-Cyclopropyl-2H-pyrazol-3-ylamino)pyridin-4-yl]-2-(tetrahydropyran-4-yloxy)benzonitrile]
270 nM | 8 nM | 10 nM |  | N#Cc1cc(-c2ccnc(Nc3cnn([C@H]4CC[C@@H](O)CC4)c3)n2)ccc1OC1CCOCC1 [Compound A73, 5-{2-[1-(4-hydroxycyclohexyl)-1H-pyrazol-4-ylamino]pyrimidin-4-yl}-2-(tetrahydropyran-4-yloxy)benzonitrile]
2400 nM | 21 nM | 6 nM |  | N#Cc1cc(-c2ccnc(Nc3ccc(C4CCNCC4)nn3)c2)ccc1OC1CCOCC1 [Compound A71, 5-[2-(6-piperidin-4-ylpyridazin-3-ylamino)pyridin-4-yl]-2-(tetrahydropyran-4-yloxy)benzonitrile]
420 nM | 6 nM | 4 nM |  | N#Cc1cc(-c2ccnc(Nc3cnn(C[C@H]4C[C@@H]4CO)c3)n2)ccc1OC1CCOCC1 [Compound A67, 5-{2-[1-((1S,2S)-2-hydroxymethylcyclopropylmethyl)-1H-pyrazol-4-ylamino]pyrimidin-4-yl}-2-(tetrahydropyran-4-yloxy)benzonitrile]
890 nM | 7 nM | 8 nM |  | COCCn1cc(Nc2nccc(-c3ccc(OCC4CCC4)c(C#N)c3)n2)cn1 [Compound A103, 2-cyclobutylmethoxy-5-{2-[1-(2-methoxyethyl)-1H-pyrazol-4-ylamino]pyrimidin-4-yl}benzonitrile]
810 nM | 10 nM | 8 nM |  | N#Cc1cc(-c2ccnc(Nc3cnn(C[C@H]4C[C@@H]4CO)c3)n2)ccc1OCC1CCC1 [Compound A95, 2-cyclobutylmethoxy-5-{2-[1-((1S,2S)-2-hydroxymethylcyclopropylmethyl)-1H-pyrazol-4-ylamino]pyrimidin-4-yl}benzonitrile]
1200 nM | 23 nM | 45 nM |  | N#Cc1cc(-c2ccnc(Nc3ccc(N4CCOCC4)cn3)c2)ccc1OCC1CC1 [Compound A108, 2-cyclopropylmethoxy-5-[2-(5-morpholin-4-ylpyridin-2-ylamino)pyridin-4-yl]benzonitrile]
450 nM | 24 nM | 25 nM |  | N#Cc1cc(-c2ccnc(Nc3ccc(CN4CCOCC4)cn3)c2)ccc1OC1CCOCC1 [Compound A118, 5-[2-(5-morpholin-4-ylmethylpyridin-2-ylamino)pyridin-4-yl]-2-(tetrahydropyran-4-yloxy)benzonitrile]
6600 nM | 34 nM | 38 nM |  | Cc1cc(Nc2cc(-c3ccc(OC4CCOCC4)c(C#N)c3)ccn2)no1 [Compound A4, 5-[2-(5-Methylisoxazol-3-ylamino)pyridin-4-yl]-2-(tetrahydropyran-4-yloxy)benzonitrile]
6100 nM | 27 nM | 21 nM |  | COc1nc(Nc2nccc(-c3ccc(OC4CCOCC4)c(C#N)c3)n2)ccc1C1=CCNCC1 [Compound A76, 5-[2-(2-methoxy-1′,2′,3′,6′-tetrahydro[3,4′]bipyridinyl-6-ylamino)pyrimidin-4-yl]-2-(tetrahydropyran-4-yloxy)benzonitrile]
4100 nM | 41 nM | 46 nM |  | N#Cc1cc(-c2ccnc(Nc3ccc(CO)cn3)c2)ccc1OCC1CC1 [Compound A106, 2-cyclopropylmethoxy-5-[2-(5-hydroxymethylpyridin-2-ylamino)pyridin-4-yl]benzonitrile]
670 nM | 6 nM | 18 nM |  | COCCn1cc(Nc2nccc(-c3ccc(OC4CCOCC4)c(C#N)c3)n2)cn1 [Compound A35, 5-{2-[1-(2-Methoxyethyl)-1H-pyrazol-4-ylamino]pyrimidin-4-yl}-2-(tetrahydropyran-4-yloxy)benzonitrile]
1400 nM | 30 nM | 12 nM |  | N#Cc1cc(-c2ccnc(Nc3cc(CN)ccn3)c2)ccc1OC1CCOCC1 [Compound A77, 5-[2-(4-aminomethyl-pyridin-2-ylamino)pyridin-4-yl]-2-(tetrahydropyran-4-yloxy)benzonitrile]
320 nM | 6 nM | 8 nM |  | N#Cc1cc(-c2ccnc(Nc3cnc(CO)cn3)c2)ccc1OC1CCOCC1 [Compound A99, 5-[2-(5-hydroxymethylpyrazin-2-ylamino)pyridin-4-yl]-2-(tetrahydropyran-4-yloxy)benzonitrile]
5400 nM | 24 nM | 40 nM |  | N#Cc1cc(-c2ccnc(Nc3cncc(C4CCNCC4)n3)c2)ccc1OC1CCOCC1 [Compound A96, 5-[2-(6-piperidin-4-ylpyrazin-2-ylamino)pyridin-4-yl]-2-(tetrahydropyran-4-yloxy)benzonitrile]
2100 nM | 5 nM | 6 nM |  | CN1CCC(c2ccnc(Nc3cc(-c4ccc(OC5CCOCC5)c(C#N)c4)ccn3)c2)CC1 [Compound A78, 5-[2-(1′-methyl-1′,2′,3′,4′,5′,6′-hexahydro-[4,4′]bipyridinyl-2-ylamino)pyridin-4-yl]-2-(tetrahydropyran-4-yloxy)benzonitrile]
